Entries after “also recorded” stand apart in the source; their conditions may differ.
Assays:
Format in all cases: cell-based
[1] = system: human lung cancer (A549), human ovarian cancer (SKOV3), human melanoma (A375) and human colon cancer (LOVO) cells; test: MTT tumor cell growth inhibition, overall comment on the four cell lines; settings: summary of the IC50 data over A549, SKOV3, A375, LOVO
Protocol: (§1) Dissolve CHJ compound series with dimethyl sultbxide (DMSO, final concentration 0.4%), and use RPMI-1640 culture medium containing 15% fetal calf serum to prepare 1 mg/mL solution for future use. During drug administration in groups, use the culture medium to dilute it to the concentration needed.
(§2) Cell lines: human lung cancer (A549), Inman ovarian cancer (SKOV3), human melanoma (A375) and human colon cancer (LOVO) cell lines, all purchased from the Cell Bank of the Chinese Academy of Sciences, DMEM containing 15% fetal bovine serum (High Glucose) culture medium, placed in a 37° C., 5% CO2 incubator.
(§3) MTT is an oxidizing yellow dye with the chemical name of 3-(4,5-dimethyl-2-thiazolyl)-2,5-diphenyl-2-H-tetrazoliumbromide tetrazole bromide. The MMT method, also known as the MTT colorimetric method, can test the survival and growth of cells. The method is simple and easily accessible and often used to screet the substance with cytotoxic activity. The basic principle of testing, is that succinodehydrogenase can reduce exogenous MIT so that MTT is reduced to blueviolet crystal Formazan insoluble to water. The crystal deposits in cells. The succinodehydrogenase exists in the mitochondria of living cells, not in the dead cells. Therefore, the chromogenic reaction can only take place in living cells. Then, dissolve the blueviolet crystal Formazan contained in cells with dimethyl sulfoxide (DMSO), and measure its absorbancy with microplate reader so that the count of living cells is reflected indirectly. Within the scope of certain cell count, the amount of blueviolet crystal Formazan formed is positively correlated to the count of living cells.
Human lung cancer (A549), human ovarian cancer (SKOV3), human melanoma (A375) and human colon cancer (LOVO) ceilsare all adherent. Based on the growth rate of tumor cells, wash the adherent tumor cells in the logarithmic phase and digest them in 0.25% EDTA pancreatic enzyme. Adjust the cell count to 1×10^5/mL and inoculate the cells in 96-pore plate, each pore containing 100 μL. Culture the cells in the 37° C. CO2 incubator, and administer the drug 24 h later. Add pharmaceutical (CJH compound series) of different concentrations to the administration group. Set up 5 dosage groups for each pharmaceutical, respectively 100, 10, 1, 0.1, 0.01 μmol/L. Set up three complex pores for each concentration. Set up blank control, DMSO (0.8%) solvent control and cis-platinum positive control. […]
After 48 h of culture of human lung cancer (A549), human ovarian cancer (SKOV3). human melanoma (A375) and human colon cancer (LOVO) cells, stop it and add 10 μL 0.5% MTT solution to each pore. […] Place it in the microplate reader and record the OD value at the wavelength of […]. […]

[2] = system: human lung cancer (A549) cells; test: MTT tumor cell growth inhibition, human lung cancer (A549); settings: Homo sapiens; A549, 48 h culture, MTT method; read-out: IC50 value of target compound against cancer cell proliferation, A549
Protocol: as §1, §2, §3
(§4) Human lung cancer (A549), human ovarian cancer (SKOV3), human melanoma (A375) and human colon cancer (LOVO) ceilsare all adherent. Based on the growth rate of tumor cells, wash the adherent tumor cells in the logarithmic phase and digest them in 0.25% EDTA pancreatic enzyme. Adjust the cell count to 1×10^5/mL and inoculate the cells in 96-pore plate, each pore containing 100 μL. Culture the cells in the 37° C. CO2 incubator, and administer the drug 24 h later. Add pharmaceutical (CJH compound series) of different concentrations to the administration group. Set up 5 dosage groups for each pharmaceutical, respectively 100, 10, 1, 0.1, 0.01 μmol/L. Set up three complex pores for each concentration. Set up blank control, DMSO (0.8%) solvent control and cis-platinum positive control. After 48 h of culture in the 37 ° C. incubator containing 5% CO2, measure the OD value through MTT method and calculate the cell inhibition ratio.
(§5) After 48 h of culture of human lung cancer (A549), human ovarian cancer (SKOV3). human melanoma (A375) and human colon cancer (LOVO) cells, stop it and add 10 μL 0.5% MTT solution to each pore. Place it in the CO2 incubator for 4 h. Remove the liquid from each pore, respectively add 0.2 mL DMSO solution, and oscillate it adequately on the table concentrator under low frequency so that the blueviolet crystal Formazan is dissolved adequately. Place it in the microplate reader and record the OD value at the wavelength of […]. Calculate the average OD value of three parallel pores of different concentrations, and calculate the cell inhibition ratio and IC50 of each tested pharmaceutical under different concentrations based on the average.
(§6) Inhibition ratio (%)=[1-tested sample OD/negative control group OD]×100%.

[3] = system: human melanoma (A375) cells; test: MTT tumor cell growth inhibition, human melanoma (A375); settings: Homo sapiens, A-375; A375, 48 h culture, MTT method; read-out: IC50 value of target compound against cancer cell proliferation, A375
Protocol: as §1, §2, §3, §4, §5, §6

[4] = system: human ovarian cancer (SKOV3) cells; test: MTT tumor cell growth inhibition, human ovarian cancer (SKOV3); settings: Homo sapiens, SK-OV-3; SKOV3, 48 h culture, MTT method; read-out: IC50 value of target compound against cancer cell proliferation, SKOV3
Protocol: as §1, §2, §3, §4, §5, §6

[5] = system: human colon cancer (LOVO) cells; test: MTT tumor cell growth inhibition, human colon cancer (LOVO); settings: Homo sapiens, 48 h culture, MTT method, read-out: IC50 value of target compound against cancer cell proliferation, LOVO
Protocol: as §1, §2, §3, §4, §5, §6

Row | IC50 [2] [µM] | IC50 [3] [µM] | IC50 [4] [µM] | IC50 [5] [µM] | Compound | anti-cancer activity, in words [1]
1 | 10.56 ± 0.02 | 1.82 ± 1.23 | 21.2 ± 1.08 | 15.2 ± 1.78 | CCCc1ccc(OCC(O)CN(C)Cc2ccc(OCCN3CCC(C)CC3)c(OC)c2)c(OC)c1 (stereo not shown) [CHJ03011, 1-((3-methoxy-4-(2-(4-methylpiperidin-1-yl)ethoxy)benzyl)(methyl)amino)-3-(2-methoxy-4-propylphenoxy)propan-2-ol] | still effective against cancer
2 | 1.88 ± 0.19 | 0.05 ± 0.01 | 1.03 ± 0.24 | 0.69 ± 0.03 | COc1cc(CN(C)CC(O)COc2c(Br)cc(Br)cc2Br)ccc1OCCN1CCC(C)CC1 (stereo not shown) [CHJ04022, 1-((3-methoxy-4-(2-(4-methylpiperidin-1-yl)ethoxy)benzyl)(methy)amino)-3-(2,4,6-tribromnophenoxy)propan-2-ol] | the most active, as active as the cis-platinum in the control group
3 | 333.1 ± 2.7 |  | 143 ± 3.1 | 97.1 ± 4.21 | COc1cc(CN(C)CC(O)COc2ccc(NC(C)=O)cc2)ccc1OCCN1CCC(C)CC1 (stereo not shown) [CHJ04061, N-(4-2-hydroxy 3-((3-methoxy-4-(2-(4-methylpiperidin-1-yl)ethoxy)benzyl)(methyl)amino)propoxy)phenypacetamide] | lowered prominently
4 | 5.46 ± 1.76 | 1.54 ± 1.34 | 4.21 ± 1.23 | 0.52 ± 0.4 | COc1cc(CN(C)CC(O)COc2c(Br)cc(Br)cc2Br)ccc1OCCN1CCCC1 (stereo not shown) [CHJ04068, 1-((3-methoxy-4-(2-(pyrrolidin-1-yl)ethoxy)henzyl)(methyl)amino)-3-(2,4,6-tribromophenoxy)propan-2-ol] | lowered prominently; also recorded: the most active, as active as the cis-platinum in the control group

— patent publication US20240166602A1, “SUBSTITUTED DIARYL COMPOUND AS WELL AS PREPARATION METHOD AND APPLICATION THEREOF” (SHANDONG FIRST MEDICAL UNIV & SHANDONG ACADEMY OF MEDICAL …, priority 2021, published 2024)
